Reference: patent US9782345B2, “Ocular composition and method” (Jade Therapeutics, Inc, priority 2013, dated 2017)

Experiment: Tobramycin release study from CMHA-S/PEGDA films (OPA fluorescence assay)
Assay type: physicochemical
Description: Tobramycin sulfate (2 mg/film) and tobramycin free base (2 mg/film) were used for this study. As tobramycin absorbs UV weakly, OPA assay and measuring fluorescence were used to calculate cumulative release of tobramycin. Amount of release tobramycin was calculated from standard curve. The accumulated release amount of tobramycin was more than 1 mg (thus more than 50% release) over 7 days.
Drug-loaded films were placed in PBS for the antibiotic release study. The fluid was removed and assayed daily. For tobramycin, detection was performed using an O-phthaldialdehyde (OPA) reagent. OPA, in the presence of reduced sulfhydryl groups, reacts with the primary amine group in tobramycin to form fluorescent moieties. The fluorescence was measured at an excitation wavelength of 360 nm, and an emission wavelength of 460 nm. The amount of released drug was calculated using a standard solution of tobramycin. For moxifloxacin, UV absorption at 293 nm was used to measure the amount of released drug. The amount of released drug was calculated using a standard solution of moxifloxacin. This removed fluid was also used to assess the bactericidal capability of released antibiotic by the disk diffusion method on agar plates seeded with S. aureus and P. aeruginosa measuring zone of inhibition (ZOI). Similar ZOI bacterial work was also performed using the actual films by an outside lab, Analytical Resource Lab (ARL, Salt Lake City, Utah).
Each film contained 40 μg of tobramycin free base. CMHA-S films were made with 3 different crosslinking ratios: 1.5, 2.0, or 2.5. As tobramycin absorbs UV weakly, OPA assay was used to measure fluorescence using low concentrations of tobramycin. The amount of released tobramycin was calculated from a standard curve. The accumulated released amount of tobramycin was more than 20 μg (thus more than 50% release) over 7 days. The release increased continuously up to day 3 and remained unchanged for the different thiol to acrylate ratios.

release of tobramycin (share of load) (40 μg tobramycin free base per film, over 7 days (FIG. 5)): more than 50% | accumulated released amount of tobramycin (40 μg tobramycin free base per film, thiol to acrylate 1.5, 2.0, 2.5, over 7 days (FIG. 5)): more than 20 μg | accumulated release amount of tobramycin (2 mg/film tobramycin sulfate or free base, thiol to acrylate 1.5 and 2.0, over 7 days (FIG. 3)): more than 1 mg | release of tobramycin (share of load) (2 mg/film, over 7 days (FIG. 3)): more than 50%
SMILES: NC[C@H]1O[C@H](O[C@H]2[C@H](O)[C@@H](O[C@H]3O[C@H](CO)[C@@H](O)[C@H](N)[C@H]3O)[C@H](N)C[C@@H]2N)[C@H](N)C[C@@H]1O [tobramycin]
